Active and inactive are the calls of the source. The calls are words filed in the database; no cut-off is given here.
Assays:
[1] = biological target: T1, P2Y purinoceptor 14 (Homo sapiens) (UniProt Q15391); conditions: time 30.0 min
T1 sequence (whole entry): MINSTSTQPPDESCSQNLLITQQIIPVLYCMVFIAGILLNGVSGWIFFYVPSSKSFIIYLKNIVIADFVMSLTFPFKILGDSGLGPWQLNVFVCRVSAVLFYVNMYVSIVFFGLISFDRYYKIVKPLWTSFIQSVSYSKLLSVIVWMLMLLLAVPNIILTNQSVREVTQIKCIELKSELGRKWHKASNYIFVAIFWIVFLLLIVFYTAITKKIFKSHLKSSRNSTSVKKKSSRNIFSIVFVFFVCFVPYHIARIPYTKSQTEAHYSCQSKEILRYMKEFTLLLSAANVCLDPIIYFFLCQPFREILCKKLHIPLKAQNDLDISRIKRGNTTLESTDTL

[2] = biological target: T2, P2Y purinoceptor 14 (Homo sapiens, UniProt Q15391); experiment: Antagonist activity at human P2Y14R stably expressed in HEK293 cells assessed as inhibition of UDPG-induced cAMP accumulation at 100 nM incubated for 30 mins in presence of forskolin by cAMP-Glo assay relative to control; assay type: functional, cell-based
T2 sequence (Q15391 whole entry): T1 sequence (whole entry)

[3] = tested on: Mus musculus; experiment: Anti-inflammatory activity in LPS-induced male C57BL/6 mouse model of acute […] injury assessed as decrease in neutrophil count in BALF at 2 mg/kg measured after 7 days; assay type: functional, organism-based; conditions: time 7.0 day
[4] = tested on: Mus musculus; experiment: Anti-inflammatory activity in LPS-induced male C57BL/6 mouse model of acute […] injury assessed as decrease dsDNA formation at 2 mg/kg measured after 7 days; assay type: functional, organism-based; conditions: time 7.0 day
[5] = tested on: Mus musculus; experiment: Anti-inflammatory activity in LPS-induced male C57BL/6 mouse model of acute […] injury assessed as appearance of tight junction integrity at 2 mg/kg measured after 7 days by ZO-1 staining based immunofluorescence analysis; assay type: functional, organism-based; conditions: time 7.0 day
[6] = tested on: Mus musculus; experiment: Anti-inflammatory activity in LPS-induced male C57BL/6 mouse model of acute […] injury assessed as decrease in CCL2 mRNA expression in lung at 2 mg/kg measured after 7 days by qPCR analysis; assay type: functional, organism-based; conditions: time 7.0 day
[7] = tested on: Mus musculus; experiment: Anti-inflammatory activity in LPS-induced male C57BL/6 mouse model of acute […] injury assessed as decrease in CXCL1 mRNA expression in lung at 2 mg/kg measured after 7 days by qPCR analysis; assay type: functional, organism-based; conditions: time 7.0 day
[8] = tested on: Mus musculus; experiment: Anti-inflammatory activity in LPS-induced male C57BL/6 mouse model of acute […] injury assessed as reduction of lung edema at 2 mg/kg measured after 7 days by H and E staining based analysis; assay type: functional, organism-based; conditions: time 7.0 day
[9] = tested on: Mus musculus; experiment: Anti-inflammatory activity in LPS-induced male C57BL/6 mouse model of acute […] injury assessed as alveolar wall thickening at 2 mg/kg measured after 7 days by H and E staining based analysis; assay type: functional, organism-based; conditions: time 7.0 day
[10] = tested on: Mus musculus; experiment: Anti-inflammatory activity in LPS-induced male C57BL/6 mouse model of acute […] injury assessed as reduction of neutrophil infiltration at 2 mg/kg measured after 7 days by H and E staining based analysis; assay type: functional, organism-based; conditions: time 7.0 day
[11] = tested on: Mus musculus; experiment: Anti-inflammatory activity in LPS-induced male C57BL/6 mouse model of acute […] injury assessed as reduction of intravascular congestion at 2 mg/kg measured after 7 days by H and E staining based analysis; assay type: functional, organism-based; conditions: time 7.0 day
[12] = tested on: Mus musculus; experiment: Anti-inflammatory activity in LPS-induced male C57BL/6 mouse model of acute […] injury assessed as decrease in NLRP3 expression at 2 mg/kg measured after 7 days; assay type: functional, organism-based; conditions: time 7.0 day
[13] = tested on: Mus musculus; experiment: Anti-inflammatory activity in LPS-induced male C57BL/6 mouse model of acute […] injury assessed as reduction of interstitial hemorrhage at 2 mg/kg measured after 7 days by H and E staining based analysis; assay type: functional, organism-based; conditions: time 7.0 day
[14] = tested on: Mus musculus; experiment: Anti-inflammatory activity in LPS-induced male C57BL/6 mouse model of acute […] injury assessed as decrease in monocyte count in BALF at 2 mg/kg measured after 7 days; assay type: functional, organism-based; conditions: time 7.0 day
[15] = tested on: Mus musculus; experiment: Anti-inflammatory activity in LPS-induced male C57BL/6 mouse model of acute […] injury assessed as decrease in GSDMD-N expression at 2 mg/kg measured after 7 days; assay type: functional, organism-based; conditions: time 7.0 day
[16] = tested on: Mus musculus; experiment: Anti-inflammatory activity in LPS-induced male C57BL/6 mouse model of acute […] injury assessed as decrease in CXCL10 mRNA expression in lung at 2 mg/kg measured after 7 days by qPCR analysis; assay type: functional, organism-based; conditions: time 7.0 day
[17] = tested on: Mus musculus; experiment: Anti-inflammatory activity in LPS-induced male C57BL/6 mouse model of acute […] injury assessed as decrease in Ly6G+ neutrophils in lung tissue at 2 mg/kg measured after 7 days by immunofluorescence analysis; assay type: functional, organism-based; conditions: time 7.0 day
[18] = tested on: Mus musculus; experiment: Anti-inflammatory activity in LPS-induced male C57BL/6 mouse model of acute […] injury assessed as decrease CXCL9 mRNA expression in lung at 2 mg/kg measured after 7 days by qPCR analysis; assay type: functional, organism-based; conditions: time 7.0 day
[19] = tested on: Mus musculus; experiment: Anti-inflammatory activity in LPS-induced male C57BL/6 mouse model of acute […] injury assessed as decrease in lymphocyte count in BALF at 2 mg/kg measured after 7 days; assay type: functional, organism-based; conditions: time 7.0 day
[20] = tested on: Mus musculus; experiment: Anti-inflammatory activity in LPS-induced male C57BL/6 mouse model of acute […] injury assessed as decrease in IL-6 level at 2 mg/kg measured after 7 days; assay type: functional, organism-based; conditions: time 7.0 day
[21] = tested on: Mus musculus; experiment: Anti-inflammatory activity in LPS-induced male C57BL/6 mouse model of acute […] injury assessed as decrease in CCL2 level in serum at 2 mg/kg measured after 7 days by ELISA method; assay type: functional, organism-based; conditions: time 7.0 day
[22] = tested on: Mus musculus; experiment: Anti-inflammatory activity in LPS-induced male C57BL/6 mouse model of acute […] injury assessed as decrease in caspase-1 expression at p20 subunit at 2 mg/kg measured after 7 days; assay type: functional, organism-based; conditions: time 7.0 day
[23] = tested on: Mus musculus; experiment: Anti-inflammatory activity in LPS-induced male C57BL/6 mouse model of acute […] injury assessed as decrease in ASC expression at 2 mg/kg measured after 7 days; assay type: functional, organism-based; conditions: time 7.0 day
[24] = tested on: Mus musculus; experiment: Anti-inflammatory activity in LPS-induced male C57BL/6 mouse model of acute […] injury assessed as decrease in F4/80+ macrophage in lung tissue at 2 mg/kg measured after 7 days by immunofluorescence analysis; assay type: functional, organism-based; conditions: time 7.0 day
[25] = tested on: Mus musculus; experiment: Anti-inflammatory activity in LPS-induced male C57BL/6 mouse model of acute […] injury assessed as decrease in CXCL1 level in serum at 2 mg/kg measured after 7 days by ELISA method; assay type: functional, organism-based; conditions: time 7.0 day
[26] = tested on: Mus musculus; experiment: Anti-inflammatory activity in LPS-induced male C57BL/6 mouse model of acute […] injury assessed as reduction in Wet/dry weight ratio at 2 mg/kg measured after 7 days; assay type: functional, organism-based; conditions: time 7.0 day
[27] = tested on: Mus musculus; experiment: Anti-inflammatory activity in LPS-induced male C57BL/6 mouse model of acute […] injury assessed as decrease MPO level at 2 mg/kg measured after 7 days; assay type: functional, organism-based; conditions: time 7.0 day
[28] = tested on: Mus musculus; experiment: Anti-inflammatory activity in LPS-induced male C57BL/6 mouse model of acute […] injury assessed as decrease in TNF-alpha level at 2 mg/kg measured after 7 days; assay type: functional, organism-based; conditions: time 7.0 day
[29] = tested on: Mus musculus; experiment: Anti-inflammatory activity in LPS-induced male C57BL/6 mouse model of acute […] injury assessed as decrease in IL-1 beta level at 2 mg/kg measured after 7 days; assay type: functional, organism-based; conditions: time 7.0 day
[30] = tested on: Mus musculus; experiment: Anti-inflammatory activity in LPS-induced male C57BL/6 mouse model of acute […] injury assessed as decrease in caspase-1 expression at p10 subunit at 2 mg/kg measured after 7 days; assay type: functional, organism-based; conditions: time 7.0 day
[31] = tested on: Mus musculus; experiment: Anti-inflammatory activity in LPS-induced male C57BL/6 mouse model of acute […] injury assessed as decrease in total WBC count in BALF at 2 mg/kg measured after 7 days; assay type: functional, organism-based; conditions: time 7.0 day
[32] = tested on: Mus musculus; experiment: Anti-inflammatory activity in LPS-induced male C57BL/6 mouse model of acute […] injury assessed as decrease NE level at 2 mg/kg measured after 7 days; assay type: functional, organism-based; conditions: time 7.0 day
[33] = HEK293, filed as antagonist, dose 100.0 nM

COC(=O)c1cc(NC(=O)Cc2ccc(-n3cccc3)cc2)cc(-c2nc3ccccc3o2)c1 showed an inhibition ([1]; HEK293, dose 100.0 nM) of 32.3%.

For COC(=O)c1cc(NC(=O)Cc2cccs2)cc(-c2nc3ccccc3o2)c1, the inhibition ([1]; HEK293, dose 100.0 nM) was 36.5%.

COC(=O)c1cc(NC(=O)Cn2cncn2)cc(-c2nc3ccccc3o2)c1 was tested, and the inhibition [1, 33] was 41.5%.

With COC(=O)c1cc(NC(=O)Cc2ccc(F)cc2)cc(-c2nc3ccccc3o2)c1 the inhibition ([1]; HEK293, dose 100.0 nM) was “inactive”.

O=C(Cc1cccs1)Nc1cc(C(=O)O)cc(-c2nc3ccccc3o2)c1 showed an inhibition ([1]; HEK293, dose 100.0 nM) of 39.8%.

Cc1ccc(CC(=O)Nc2cc(C(=O)NCCOCCOCCOCCNC(=O)CCCC[C@H]3SC[C@H]4NC(=O)N[C@H]43)cc(-c3nc4ccccc4[nH]3)c2)cc1 showed an IC50 [2] of 840 pM.

Work on COC(=O)c1cc(NC(=O)Cn2cccc2)cc(-c2nc3ccccc3o2)c1 yielded an inhibition ([1]; HEK293, dose 100.0 nM) of 26.3%.

COc1ccc(CC(=O)Nc2cc(C(=O)O)cc(-c3nc4ccccc4o3)c2)cc1 gave an inhibition [1, 33] of 48%.

COC(=O)c1cc(NC(=O)Cc2ccc(OC)cc2)cc(-c2nc3ccccc3o2)c1 was tested, and the inhibition ([1]; HEK293, dose 100.0 nM) was 39.3%.

Work on O=C(Cc1ccc(F)cc1)Nc1cc(C(=O)O)cc(-c2nc3ccccc3o2)c1 yielded an inhibition ([1]; HEK293, dose 100.0 nM) of 30.8%.

With O=C(Cc1ccc(Br)cc1)Nc1cc(C(=O)O)cc(-c2nc3ccccc3o2)c1 the inhibition ([1]; HEK293, dose 100.0 nM) was 20.9%.

With O=C(Cc1ccc(C(F)(F)F)cc1)Nc1cc(C(=O)O)cc(-c2nc3ccccc3o2)c1 the inhibition ([1]; HEK293, dose 100.0 nM) was 23.1%.

COC(=O)c1cc(NC(=O)Cc2ccc(C)c(C)c2)cc(-c2nc3ccccc3o2)c1 was tested, and the inhibition ([1]; HEK293, dose 100.0 nM) was 34.5%.

Work on N#Cc1ccc(CC(=O)Nc2cc(C(=O)O)cc(-c3nc4ccccc4o3)c2)cc1 yielded an inhibition [1, 33] of 46.1%.

O=C(Cn1cccc1)Nc1cc(C(=O)O)cc(-c2nc3ccccc3o2)c1 gave an inhibition [1, 33] of 43.2%.

For COC(=O)c1cc(NC(=O)Cc2ccc(C)cc2)cc(-c2nc3ccccc3s2)c1, the inhibition ([1]; HEK293, dose 100.0 nM) was 34.7%.

In the case of C[C@@H]1C[C@H]2[C@@H]3CCC4=CC(=O)C=C[C@]4(C)[C@@]3(F)[C@@H](O)C[C@]2(C)[C@@]1(O)C(=O)CO, the Activity [3] is reported as “Active”, the Activity [4] is reported as “Active” and the Activity [5] is reported as “Active”. For the same molecule, the Activity [6] was “Active”, the Activity [7] was “Active” and the Activity [8] was “Active”. For the same molecule, the Activity [9] was “Active”, the Activity [10] was “Active” and the Activity [11] was “Active”. For the same molecule, the Activity [12] was “Active”, the Activity [13] was “Active” and the Activity [14] was “Active”. The Activity [15] was “Active”, the Activity [16] was “Active” and the Activity [17] was “Active”. The Activity [18] was “Active”, the Activity [19] was “Active” and the Activity [20] was “Active”. For the same molecule, the Activity [21] was “Active”, the Activity [22] was “Active” and the Activity [23] was “Active”. The Activity [24] was “Active”, the Activity [25] was “Active” and the Activity [26] was “Active”. The Activity [27] was “Active”, the Activity [28] was “Active” and the Activity [29] was “Active”. The Activity [30] was “Active”, the Activity [31] was “Active” and the Activity [32] was “Active”.

In the case of COC(=O)c1cc(NC(=O)Cc2ccccc2)cc(-c2nc3ccccc3o2)c1, the inhibition [1, 33] is reported as 48.6%.

Work on O=C(Cn1cncn1)Nc1cc(C(=O)O)cc(-c2nc3ccccc3o2)c1 yielded an inhibition ([1]; HEK293, dose 100.0 nM) of 38.3%.

With COC(=O)c1cc(NC(=O)Cc2ccc(C)cc2C)cc(-c2nc3ccccc3o2)c1 the inhibition [1, 33] was 42.3%.

O=C(Cc1ccc(-n2cccc2)cc1)Nc1cc(C(=O)O)cc(-c2nc3ccccc3o2)c1 gave an inhibition ([1]; HEK293, dose 100.0 nM) of 24.2%.

Molecule O=C(Cc1ccccc1)Nc1cc(C(=O)O)cc(-c2nc3ccccc3o2)c1 has an inhibition ([1]; HEK293, dose 100.0 nM) of 35.2%.

Reference: ChEMBL document CHEMBL6096734, “Design, Synthesis and Anti-Inflammatory Evaluation of 3-Substituted 5-Amidobenzoate Derivatives as Novel P2Y14 Receptor Antagonists via Structure-Guided Molecular Hybridization” (J Med Chem, 2025)
